This assay has as its target voltage-gated K+ channel KCNQ2 (Homo sapiens, UniProt O43526). The assay can be described thus: thallium flux assay to detect openers of KCNQ potassium channels. It is filed as cell-based. The note with it: thallium influx assay; 10 point concentration series, 1:3 dilutions; concentration yielding 50% of maximal response (opening). An excerpt:
A thallium flux assay was used to detect and characterize openers of KCNQ potassium channels. The thallium assay is generally described in International application WO 02/31508 published Apr. 18, 2002. More specifically, the thallium influx assay to detect compounds that block or open the voltage-gated K^+ channel KCNQ2 is described in Example IV of the published WO 02/31508 application.
For data analysis, the amplitude of the average of the negative controls was subtracted from all wells. The amplitudes of the test compounds were then compared to the value of four standard deviations of the negative control wells. The lowest concentration of a test compound sufficient to generate a signal amplitude greater than or equal to four standard deviations from the amplitude of the negative controls was defined as the minimal active concentration.
For generating EC50 values, compounds were serially diluted in 1:3 volume increments to produce a 10 point concentration series. EC50 values were calculated by fitting the resulting amplitudes to a single-site logistic equation. EC50 was defined as the concentration of test compound required to yield 50% of the maximal response. Maximal response (Maximal opening) was the largest signal amplitude above the negative control generated by any concentration of a test compound.

For orientation: EC50 means the midpoint of the concentration-response curve. A higher EC50 goes with weaker potency.

The structures appear in SMILES notation.

Chain of voltage-gated K+ channel KCNQ2 (O43526 whole entry): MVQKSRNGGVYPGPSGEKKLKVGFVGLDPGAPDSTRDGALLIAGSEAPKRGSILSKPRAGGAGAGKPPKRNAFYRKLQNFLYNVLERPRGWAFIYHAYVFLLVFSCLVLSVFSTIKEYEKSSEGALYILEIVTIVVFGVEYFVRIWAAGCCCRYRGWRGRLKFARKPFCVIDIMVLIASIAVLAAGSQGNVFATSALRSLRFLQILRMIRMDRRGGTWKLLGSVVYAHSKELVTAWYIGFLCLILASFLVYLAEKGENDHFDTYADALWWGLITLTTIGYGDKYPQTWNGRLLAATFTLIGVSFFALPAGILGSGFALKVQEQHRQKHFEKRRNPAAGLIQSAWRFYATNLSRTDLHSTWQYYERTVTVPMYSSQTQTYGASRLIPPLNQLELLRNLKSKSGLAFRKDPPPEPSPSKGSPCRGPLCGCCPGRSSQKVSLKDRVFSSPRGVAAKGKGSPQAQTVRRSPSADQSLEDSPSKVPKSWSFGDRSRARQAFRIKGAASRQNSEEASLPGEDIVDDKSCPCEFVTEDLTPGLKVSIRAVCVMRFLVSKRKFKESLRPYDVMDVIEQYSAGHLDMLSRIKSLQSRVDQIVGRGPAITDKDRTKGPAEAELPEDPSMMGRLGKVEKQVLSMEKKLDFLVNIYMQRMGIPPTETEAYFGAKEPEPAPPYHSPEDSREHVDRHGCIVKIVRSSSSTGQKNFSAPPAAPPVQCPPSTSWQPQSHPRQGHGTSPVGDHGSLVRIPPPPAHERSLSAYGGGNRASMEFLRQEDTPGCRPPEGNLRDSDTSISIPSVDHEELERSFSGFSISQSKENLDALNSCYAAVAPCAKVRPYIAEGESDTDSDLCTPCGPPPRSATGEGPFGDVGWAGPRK

In turn, `C[C@H](NC(=O)/C=C/c1ccccc1F)c1cccc(N2CCN(c3ccccn3)CC2)c1` [Example 3, (S)-3-(2-Fluoro-phenyl)-N-{1-[3-(4-pyridin-2-yl-piperazin-1-yl)-phenyl]-ethyl}-acrylamide] gave an EC50 of 476 nM. That is a sub-micromolar value.
Compound `C[C@H](NC(=O)/C=C/c1cccc(F)c1F)c1cccc(N2CCN(c3ccccn3)CC2)c1` [Example 10, (S)-3-(2,3-Difluoro-phenyl)-N-{1-[3-(4-pyridin-2-yl-piperazin-1-yl)-phenyl]-ethyl}-acrylamide] showed an EC50 of 1 nM.
Then `C[C@H](NC(=O)/C=C/c1ccc(F)cc1F)c1cccc(N2CCN(c3ccccn3)CC2)c1` [Example 11, (S)-3-(2,4-Difluoro-phenyl)-N-{1-[3-(4-pyridin-2-yl-piperazin-1-yl)-phenyl]-ethyl}-acrylamide], with 1 nM; and `C[C@H](NC(=O)/C=C/c1cc(F)ccc1F)c1cccc(N2CCN(c3ccccn3)CC2)c1` [Example 12, (S)-3-(2,5-Difluoro-phenyl)-N-{1-[3-(4-pyridin-2-yl-piperazin-1-yl)-phenyl]-ethyl}-acrylamide], with 4 nM; and `C[C@H](NC(=O)/C=C/c1c(F)cccc1F)c1cccc(N2CCN(c3ccccn3)CC2)c1` [Example 13, (S)-3-(2,6-Difluoro-phenyl)-N-{1-[3-(4-pyridin-2-yl-piperazin-1-yl)-phenyl]-ethyl}-acrylamide], with 280 nM.
`C[C@H](NC(=O)/C=C/c1ccc(Cl)cc1F)c1cccc(N2CCN(c3ccccn3)CC2)c1` [Example 17, (S)-3-(4-Chloro-2-fluoro-phenyl)-N-{1-[3-(4-pyridin-2-yl-piperazin-1-yl)-phenyl]-ethyl}-acrylamide] gave an EC50 of 1 nM. Compared with the last compound, the EC50 is about 280-fold lower.

(Values after patent US7087609B2, “3-(pyridinyl-piperazin-1-yl)-phenylethyl amides as potassium channel openers” (Bristol-Myers Squibb Company, priority 2002, dated 2006).)
